From patent publication US20260034192A1 (University of Saskatchewan, priority 2022, published 2026)
Where “and” joins values, the source holds several entries; their conditions need not be identical. Equal values may be shown once. Marks after values point to notes of the source that are not given here. Ends that are not written are not given here.

Key:
Assay type in all cases: in vivo, cattle
mature Angus heifers = experiment: Cetrorelix versus estradiol benzoate synchronization protocol with AI, random day of cycle (Example 7)
Experimental: This experiment was conducted on 38 mature Angus heifers at the Federal University of Santa Maria in Brazil. Heifers on a random day of the cycle (defined as Day 0) were divided into 2 groups (n=19 per group) and treated with a single i/m injection of 3 mg cetrorelix or with estradiol benzoate (1 mg i/m). A progesterone-releasing device (CIDR) was placed in the vagina of heifers at this time. Eight days after the cetrorelix or estradiol treatments, heifers were given 500 ug cloprostenol (prostaglandin analog) i/m injections and the CIDR device was removed. […] Heifers were given 250 ug gonadorelin acetate (GnRH analog) i/m injection at the time of artificial insemination. […] Pregnancy diagnosis was done 29-30 days after artificial insemination.

[1] = system: Brahman x Angus cross beef post-partum cows; experiment: Field trial of fixed-time AI after cetrorelix versus estradiol protocol (Example 8)
Experimental: This field trial was conducted by a faculty member of the Federal University of Santa Maria at a client beef farm in Brazil in December 2022. A total of 216 Brahman x Angus cross beef post-partum cows were used for this experiment. Cows were divided into two treatment groups ([…]) and were either given cetrorelix 3 mg i/m or estradiol benzoate on a random day of the cycle (defined as Day 0). An intravaginal progesterone device (CIDR) was placed in all cows on Day 0. The CIDR devices were removed on Day 8 and animals were given prostaglandin F2a analog and equine choriogonadotropin (eCG). Fixed-time artificial insemination was done 54 hrs after CIDR removal and animals were given GnRH at this time. Pregnancy diagnosis was performed on Day 30 after artificial insemination. Transrectal ultrasound examinations were performed on Day 0, Day 8, Day 10 and Day 40.

[2] = system: Hereford crossbred heifers; experiment: Cetrorelix pre-treatment before kisspeptin-10 in low-progesterone heifer model (Example 1); conditions: for Ovulation rate after treatments: number of heifer/total: extant dominant follicle
Experimental: Methods: The human Kisspeptin-10 (hKP-10) peptide (YNWNSFGLRF-NH2; SEQ ID NO: 1) was custom synthetized at >95% of purity (MW: 1318.44 g/mol) by GenScript USA Inc, Piscataway, NJ, USA. The sequence is based on the predicted C-terminal region (112-121-NH2) of human metastin (Gen Bank accession #AY117143) and has been previously used in cattle. The peptide was previously tested for solubility and was dissolved in ultrapure water at 10 mg/mL.
The heifers were maintained in outdoor pens at the University of Saskatchewan Goodale Research Farm (52° north and 106° west). Heifers were fed barley silage and had hay and water ad libitum. A mineral salt block was available to heifers throughout the study period. All procedures were performed in accordance with Canadian Council on Animal Care and were approved by the University of Saskatchewan Protocol Review Committee.
Immediately after ultrasound examination, heifers were given PGF2a twice at an interval of 12-hours. The low-progesterone bovine model described previously (Leonardi et al. 2019) was used to test the hypothesis. Briefly, the ovaries were examined daily by ultrasonography to detect ovulation. Three days after ovulation, follicles ≥5 mm in diameter in both ovaries were ablated by transvaginal ultrasound-guided follicle aspiration, inducing the emergence of new follicular wave 1.5 days after the procedure (Bergfelt et al. 1994). After follicular ablation, a progesterone device was placed in the vagina (CIDR; Zoetis). The day of wave emergence (Day 0) was defined as the day when the follicle of wave was first recorded (4 to 5 mm in diameter) with concurrent increase in diameter. Heifers were given PGF2α im on Days 3.5 and 4 (i.e., 8 and 8.5 days after ovulation) to cause luteolysis, however, the CIDR devices were left in place until Day 12 to maintain a low-progesterone milieu sufficient to prevent spontaneous ovulation. On Day 6, an indwelling jugular catheter was placed as described (Bergfelt et al. 1997) and heifers were assigned randomly to three groups (n=5 per group): 1) 3 iv doses of 15 mg human kisspeptin-10 at 1 h intervals (Kp10 group), 2) pretreatment with single im dose of Cetrorelix acetate (20 μg/Kg of body weight, GnRH antagonist—Sigma #C5249 diluted in 5% D-Manitol w/v, Sigma #M4125) followed 3 h later with 3 iv doses of 15 mg human kisspeptin-10 at 1 h intervals (Cetrorelix group), or 3) 3 iv doses of normal saline at 1 h intervals (Control group). Following treatment (on Day 6), ovarian ultrasound examinations were performed daily until the end of the experiment to detect ovulation of the extant dominant follicle (i.e., dominant follicle present at the time of treatment) or of the dominant follicle originating from a subsequent wave. The progesterone device was withdrawn on Day 12 (i.e., thirteen days after insertion) and ultrasound examinations were continued until ovulation was detected.
Blood samples and hormone assays: Serial blood samples on the day of treatment were collected at 15 minute intervals from −30 to 150 min (0 min=time of first hKP-10 or saline injection) using the indwelling jugular catheter. All blood samples were collected in heparinized tubes (Vacutainer, BD, Franklin Lakes NJ, USA). Immediately after sampling, tubes were centrifuged at 1,500×g for 15 min, and plasma was separated and stored at −20° C.
The plasma samples from both experiments were analyzed for LH and progesterone concentration at the University of Wisconsin (Madison, WI, USA) in Dr O. J. Ginther's Research Laboratory. Plasma LH concentrations were measured with a validated radioimmunoassay for cattle (Bolt et al. 1990) with modifications as reported Ginther et al. 1999). Briefly, LH concentrations were measured in duplicate using USDA-bLH-B-6 for ^125I-iodination and for preparing reference standards, and USDA-309-684P as the primary antibody (National Hormone and Pituitary Program, Torrance, CA, USA). […]

[3] = 3 mg cetrorelix or 1 mg estradiol benzoate i/m
[4] = 30 days after fixed-time artificial insemination
[5] = Day 6 of wave, low progesterone, Kp10 3 x 15 mg iv, Cetrorelix 20 μg/Kg im 3 h before Kp10
[6] = Kp10 3 x 15 mg iv, Cetrorelix 20 μg/Kg im 3 h before Kp10

C[C@]12CC[C@@H]3c4ccc(OC(=O)c5ccccc5)cc4CC[C@H]3[C@@H]1CC[C@@H]2O [Estradiol benzoate, estradiol benzoate]
Pregnant/Double AI (mature Angus heifers; [3]): 7/12 | Pregnant/Double AI, percent (mature Angus heifers; [3]): 58% | Pregnant/Single AI (mature Angus heifers; [3]): 6/7 | Pregnant/Single AI, percent (mature Angus heifers; [3]): 86% | Pregnant/Total, percent (pregnancy rate) (mature Angus heifers; random day of cycle, 3 mg cetrorelix i/m or 1 mg estradiol benzoate i/m, CIDR 8 days): 68% | Pregnant/Total (mature Angus heifers; random day of cycle, 3 mg cetrorelix i/m or 1 mg estradiol benzoate i/m, CIDR 8 days, PGF, GnRH at AI): 13/19 | Conception rate: Percent [1, 4]: 45.6% | Conception rate: Pregnant/AI [1, 4]: 48/106* | Conception rate: Percent ([1]; 30 days after fixed-time artificial insemination, listed as estradiol): 45.6% | Size of the dominant follicle on Day 8 (at PGF) ([1]; cetrorelix 3 mg i/m or estradiol benzoate on Day 0, CIDR removal Day 8, in mm): 8.60 ± 0.39 | Size of the dominant follicle on Day 10 (at AI) ([1]; cetrorelix 3 mg i/m or estradiol benzoate on Day 0, in mm): 11.38 ± 0.56

Kp10: human Kisspeptin-10 (hKP-10) peptide YNWNSFGLRF-NH2; SEQ ID NO: 1 (listed as Homo sapiens)
Interval between treatment and ovulation (hours after treatment) ([2]; Day 6 of wave, low progesterone, Kp10 3 x 15 mg iv): 48 h | Dominant follicle diameter 24 h after treatment [2, 5]: 12.24 ± 0.89 mm | Dominant follicle diameter 48 h after treatment [2, 5]: 16.51 mm | Dominant follicle diameter at time of treatment [2, 5]: 11.34 ± 0.91 mm | Emergence of a new follicular wave after treatment ([2]; Day 6 of wave, low progesterone, Kp10 3 x 15 mg iv, Cetrorelix single im 20 μg/Kg 3 h before Kp10): 2.75 ± 0.75 days | Day of ovulation of new dominant follicles after CIDR removal (Day 12) ([2]; Day of follicular wave): 15 | Heifers in which a new wave emergence occurred [2, 6]: 4 of 5 | Number of ovulations after CIDR removal on Day 12: Extant dominant follicle [2, 6]: 1/1 | Number of ovulations after CIDR removal on Day 12: New dominant follicle [2, 6]: 4/4 | Plasma LH concentration / kisspeptin-induced LH surge [2, 6]: higher plasma LH concentrations | Ovulation rate after treatments: number of heifer/total [2, 5]: 4 of 5 and 4/5^a | Ovulation rate after treatments: number of heifer/total ([2]; Day 6 of wave, low progesterone, Kp10 3 x 15 mg iv, Cetrorelix 20 μg/Kg im 3 h before Kp10, listed as kisspeptin): 4 out of 5
